In ChEMBL document CHEMBL5543149, “Discovery of Novel Aryl Triazolone Dihydropyridines (ATDPs) Targeting Highly Conserved Residue W229 as Promising HIV-1 NNRTIs” (J Med Chem, 2024):
≈ marks a conversion by molar mass, not a printed value.

Experiments:
[1] = Half life in Sprague-Dawley rat at 10 mg/kg, po measured upto 24 hrs by LC-MS/MS analysis; type: ADME, organism-based; settings: in vivo
[2] = system: Human immunodeficiency virus 1; experiment: Antiviral activity against wild type HIV-1 infected in mouse harboring E138K mutant at 10 mg/kg, po measured for 24 hrs; type: functional, organism-based; settings: Human immunodeficiency virus 1, 24 h
[3] = Cytotoxicity against human MT4 cells assessed as reduction in cell viability by MTT assay; type: toxicity, cell-based
[4] = Acute toxicity in Kunming mouse assessed as change in body weight at 2000 mg/kg, po measured for 7 days; type: organism-based; settings: in vivo, 168 h, time 7 day
[5] = system: Human immunodeficiency virus 1; experiment: Antiviral activity against wild type HIV-1 IIIB infected in human MT4 cells assessed as protection against virus-induced cytopathic effect incubated for 5 days by MTT assay; type: functional, organism-based; settings: Human immunodeficiency virus 1, IIIB, MT4, 120 h
[6] = system: Human immunodeficiency virus 1; experiment: Antiviral activity against wild type HIV-1 infected in mouse harboring RES056 mutant at 10 mg/kg, po measured for 24 hrs; type: functional, organism-based; settings: Human immunodeficiency virus 1, 24 h
[7] = system: Human immunodeficiency virus 1; experiment: Antiviral activity against NNRTI-resistant HIV-1 harboring Y181C mutant infected in human MT4 cells assessed as protection against virus-induced cytopathic effect by MTT assay; type: functional, organism-based; settings: Human immunodeficiency virus 1, MT4
[8] = system: Human immunodeficiency virus 1; experiment: Antiviral activity against NNRTI-resistant HIV-1 harboring E138K mutant infected in human MT4 cells assessed as protection against virus-induced cytopathic effect by MTT assay; type: functional, organism-based; settings: Human immunodeficiency virus 1, MT4
[9] = system: Human immunodeficiency virus 1; experiment: Antiviral activity against NNRTI-resistant HIV-1 harboring RES056 mutant infected in human MT4 cells assessed as protection against virus-induced cytopathic effect by MTT assay; type: functional, organism-based; settings: Human immunodeficiency virus 1, MT4
[10] = AUC (0 to infinity) in Sprague-Dawley rat at 2 mg/kg, iv measured upto 24 hrs by LC-MS/MS analysis; type: ADME, organism-based; settings: in vivo
[11] = system: Human immunodeficiency virus 1; experiment: Antiviral activity against wild type HIV-1 infected in mouse harboring K103N mutant at 10 mg/kg, po measured for 24 hrs; type: functional, organism-based; settings: Human immunodeficiency virus 1, 24 h
[12] = AUC (0 to infinity) in Sprague-Dawley rat at 10 mg/kg, po measured upto 24 hrs by LC-MS/MS analysis; type: ADME, organism-based; settings: in vivo
[13] = Subacute toxicity in Kunming mouse assessed as kidney damage at 50 mg/kg, po administered every 2 days for 2 weeks; type: organism-based; settings: in vivo, 336 h
[14] = Subacute toxicity in Kunming mouse assessed as heart damage at 50 mg/kg, po administered every 2 days for 2 weeks; type: organism-based; settings: in vivo, 336 h
[15] = Selectivity index, ratio of CC50 for cytotoxicity against human MT4 cells assessed as reduction in cell viability by MTT assay to EC50 for antiviral activity against wild type HIV-1 IIIB infected in human MT4 cells assessed as protection against virus-induced cytopathic effect; type: toxicity, cell-based; settings: read-out: Ratio CC50/EC50
[16] = Water solubility of compound at pH 7 incubated for 2 hrs by HPLC analysis; type: physicochemical
[17] = Subacute toxicity in Kunming mouse assessed as clonic convulsion at 50 mg/kg, po administered every 2 days for 2 weeks; type: organism-based; settings: in vivo, 336 h
[18] = Subacute toxicity in Kunming mouse assessed as spleen damage at 50 mg/kg, po administered every 2 days for 2 weeks; type: organism-based; settings: in vivo, 336 h
[19] = Cmax in Sprague-Dawley rat at 2 mg/kg, iv measured upto 24 hrs by LC-MS/MS analysis; type: ADME, organism-based; settings: in vivo
[20] = Subacute toxicity in Kunming mouse assessed as liver damage at 50 mg/kg, po administered every 2 days for 2 weeks; type: organism-based; settings: in vivo, 336 h
[21] = system: Human immunodeficiency virus 1; experiment: Antiviral activity against wild type HIV-1 infected in mouse harboring L100I mutant at 10 mg/kg, po measured for 24 hrs; type: functional, organism-based; settings: Human immunodeficiency virus 1, 24 h
[22] = Clearance in Sprague-Dawley rat at 2 mg/kg, iv measured upto 24 hrs by LC-MS/MS analysis; type: ADME, organism-based; settings: in vivo
[23] = Subacute toxicity in Kunming mouse assessed as lethargy at 50 mg/kg, po administered every 2 days for 2 weeks; type: organism-based; settings: in vivo, 336 h
[24] = Tmax in Sprague-Dawley rat at 10 mg/kg, po measured upto 24 hrs by LC-MS/MS analysis; type: ADME, organism-based; settings: in vivo
[25] = AUC (0 to t ) in Sprague-Dawley rat at 2 mg/kg, iv measured upto 24 hrs by LC-MS/MS analysis; type: ADME, organism-based; settings: in vivo
[26] = biological target: Human immunodeficiency virus type 1 reverse transcriptase (Human immunodeficiency virus 1, UniProt Q72547); experiment: Inhibition of wild type HIV-1 Reverse transcriptase assessed as reduction of biotin-dUTP incorporation into […] using ABTS as substrate preincubated with compound for 1 hr followed by substrate addition in presence of biotin-labeled dNTPs by ELISA analysis
[27] = Solubility of compound at pH 2 incubated for 2 hrs by HPLC analysis; type: physicochemical; settings: buffer
[28] = Cmax in Sprague-Dawley rat at 10 mg/kg, po measured upto 24 hrs by LC-MS/MS analysis; type: ADME, organism-based; settings: in vivo
[29] = Tmax in Sprague-Dawley rat at 2 mg/kg, iv measured upto 24 hrs by LC-MS/MS analysis; type: ADME, organism-based; settings: in vivo
[30] = system: Human immunodeficiency virus 1; experiment: Antiviral activity against wild type HIV-1 infected in mouse harboring Y181C mutant at 10 mg/kg, po measured for 24 hrs; type: functional, organism-based; settings: Human immunodeficiency virus 1, 24 h
[31] = Subacute toxicity in Kunming mouse assessed as lung damage at 50 mg/kg, po administered every 2 days for 2 weeks; type: organism-based; settings: in vivo, 336 h
[32] = Water solubility of compound at pH 7.4 incubated for 2 hrs by HPLC analysis; type: physicochemical
[33] = Half life in Sprague-Dawley rat at 2 mg/kg, iv measured upto 24 hrs by LC-MS/MS analysis; type: ADME, organism-based; settings: in vivo
[34] = system: Human immunodeficiency virus 1; experiment: Antiviral activity against NNRTI-resistant HIV-1 harboring K103N mutant infected in human MT4 cells assessed as protection against virus-induced cytopathic effect by MTT assay; type: functional, organism-based; settings: Human immunodeficiency virus 1, MT4
[35] = AUC (0 to t ) in Sprague-Dawley rat at 10 mg/kg, po measured upto 24 hrs by LC-MS/MS analysis; type: ADME, organism-based; settings: in vivo
[36] = Subacute toxicity in Kunming mouse assessed as ruffled fur at 50 mg/kg, po administered every 2 days for 2 weeks; type: organism-based; settings: in vivo, 336 h
[37] = system: Human immunodeficiency virus 1; experiment: Antiviral activity against wild type HIV-1 infected in mouse at 10 mg/kg, po measured for 24 hrs; type: functional, organism-based; settings: Human immunodeficiency virus 1, 24 h
[38] = Oral bioavailability in Sprague-Dawley rat at 10 mg/kg measured upto 24 hrs by LC-MS/MS analysis; type: ADME, organism-based; settings: in vivo
[39] = system: Human immunodeficiency virus 1; experiment: Antiviral activity against wild type HIV-1 infected in mouse harboring […] mutant at 10 mg/kg, po measured for 24 hrs; type: functional, organism-based; settings: Human immunodeficiency virus 1, 24 h
[40] = Subacute toxicity in Kunming mouse assessed as anorexia at 50 mg/kg, po administered every 2 days for 2 weeks; type: organism-based; settings: in vivo, 336 h
[41] = system: Human immunodeficiency virus 1; experiment: Antiviral activity against NNRTI-resistant HIV-1 harboring Y188L mutant infected in human MT4 cells assessed as protection against virus-induced cytopathic effect by MTT assay; type: functional, organism-based; settings: Human immunodeficiency virus 1, MT4
[42] = Acute toxicity in Kunming mouse assessed as behavioral abnormalities at 2000 mg/kg, po measured for 7 days; type: organism-based; settings: in vivo, 168 h, time 7 day
[43] = system: Human immunodeficiency virus 1; experiment: Antiviral activity against NNRTI-resistant HIV-1 harboring L100I mutant infected in human MT4 cells assessed as protection against virus-induced cytopathic effect by MTT assay; type: functional, organism-based; settings: Human immunodeficiency virus 1, MT4

For `Cn1c(Cn2ccc(C(F)(F)F)c(Oc3cc(Cl)cc(-c4ccc(Br)cc4)c3)c2=O)n[nH]c1=O`, the half-life [1] was 5.09 h, the EC50 [2] was 13 nM and the CC50 [3] was 118000 nM. The Activity [4] was “Non-Toxic”, the EC50 [5] was 9 nM and the EC50 [6] was 56 nM. The EC50 [7] was 18 nM, the EC50 [8] was 13 nM and the EC50 [9] was 59 nM. For the same compound, the AUC(0-inf) [10] was 7670 ng·h/mL, the EC50 [11] was 13 nM and the AUC(0-inf) [12] was 41800 ng·h/mL. The Activity [13] was “Non-Toxic”, the Activity [14] was “Non-Toxic” and the selectivity ratio [15] was 13100. The solubility at 2 h [16] was 45.7 µg/mL (≈ 82.2 µM), the Activity [17] was “Non-Toxic” and the Activity [18] was “Non-Toxic”. The Cmax [19] was 1950 ng/mL, the Activity [20] was “Non-Toxic” and the EC50 [21] was 11 nM. For the same compound, the clearance [22] was 4.35 mL/min/kg, the Activity [23] was “Non-Toxic” and the Tmax [24] was 4 h. For the same compound, the AUC(0-t) at 24 h [25] was 5490 ng·h/mL, the IC50 [26] was 40 nM and the solubility at 2 h [27] was 107 µg/mL (≈ 193 µM). It also gave a Cmax [28] of 3340 ng/mL, a Tmax [29] of 3 min and an EC50 [30] of 16 nM. The Activity [31] was “Non-Toxic”, the solubility at 2 h [32] was 32.2 µg/mL (≈ 57.9 µM) and the half-life [33] was 4.49 h. For the same compound, the EC50 [34] was 13 nM, the AUC(0-t) at 24 h [35] was 39600 ng·h/mL and the Activity [36] was “Non-Toxic”. The EC50 [37] was 9 nM, the bioavailability [38] was 109% and the EC50 [39] was 703 nM. The Activity [40] was “Non-Toxic”, the EC50 [41] was 703 nM and the Activity [42] was “Non-Toxic”. The EC50 [43] was 11 nM.
